Source: paper PMC3034214, “Inhibition of Escherichia coli glycosyltransferase MurG and Mycobacterium tuberculosis Gal transferase by uridine-linked transition state mimics” (Bioorganic & Medicinal Chemistry, 2010)
pIC50: −log10 of the molar value.

How the values were obtained:
E. coli MurG = E. coli MurG (Escherichia coli, UniProt P17443); assay: Coupled radiochemical MraY/MurG assay ([3H]-UDPGlcNAc incorporation into lipid intermediate II); details: for inhibition at 1000 µM: read-out: Percentage inhibition of E. coli MurG
Sequence of E. coli MurG (P17443 whole entry): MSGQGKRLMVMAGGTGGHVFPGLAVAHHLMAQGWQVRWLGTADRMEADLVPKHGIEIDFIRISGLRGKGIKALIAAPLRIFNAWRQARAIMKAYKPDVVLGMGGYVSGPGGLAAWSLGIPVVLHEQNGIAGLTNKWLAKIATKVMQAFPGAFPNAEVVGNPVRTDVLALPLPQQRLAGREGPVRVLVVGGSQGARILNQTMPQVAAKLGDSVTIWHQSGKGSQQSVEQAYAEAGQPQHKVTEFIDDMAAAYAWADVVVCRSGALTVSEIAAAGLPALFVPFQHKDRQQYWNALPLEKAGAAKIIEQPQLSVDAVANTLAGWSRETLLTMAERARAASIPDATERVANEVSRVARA

[1] = system: Mycobacterium tuberculosis galactosyltransferase GlfT2; assay: Galactosyltransferase assay ([14C]Gal incorporation into Galf(β1→6)Galf-O-C8 acceptor, membranes and cell wall fraction); type: biochemical; details: read-out: Percentage inhibition of Mt GTase (Mycobacterium tuberculosis galactosyl transferase)
Sequence of Mycobacterium tuberculosis galactosyltransferase GlfT2 (A0R628 whole entry): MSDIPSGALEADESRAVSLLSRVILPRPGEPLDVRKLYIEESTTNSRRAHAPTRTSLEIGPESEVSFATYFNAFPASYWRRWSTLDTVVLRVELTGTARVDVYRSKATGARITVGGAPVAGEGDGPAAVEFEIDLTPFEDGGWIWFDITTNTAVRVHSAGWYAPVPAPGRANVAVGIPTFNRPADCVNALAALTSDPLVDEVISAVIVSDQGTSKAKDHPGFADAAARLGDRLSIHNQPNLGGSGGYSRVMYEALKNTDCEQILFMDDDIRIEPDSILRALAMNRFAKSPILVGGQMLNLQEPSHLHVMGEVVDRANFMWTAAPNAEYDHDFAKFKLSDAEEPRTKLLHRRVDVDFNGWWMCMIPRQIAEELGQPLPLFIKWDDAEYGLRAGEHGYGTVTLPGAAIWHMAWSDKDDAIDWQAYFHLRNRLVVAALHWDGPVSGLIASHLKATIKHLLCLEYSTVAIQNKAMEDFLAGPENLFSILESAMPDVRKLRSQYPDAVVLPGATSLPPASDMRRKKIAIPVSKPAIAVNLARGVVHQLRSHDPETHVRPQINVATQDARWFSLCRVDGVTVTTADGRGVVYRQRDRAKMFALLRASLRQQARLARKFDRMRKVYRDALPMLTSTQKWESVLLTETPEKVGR
Excerpt: The arabinogalactan cell wall polymer of M. tuberculosis is biosynthesised through the action of a series of glycosyltransferases,[16] several of which use UDP-sugar substrates, and therefore might be inhibited by this class of compound. We have characterised a UDP-galactose-dependent galactosyltransferase activity GlfT2, which can be assayed using specific neoglycolipid acceptors in the presence of membranes and Galf(β1→6)Galf-O-C8 resulting in excellent [[14]C]Galf incorporation from UDP-[^14C]Galp, following endogenous conversion to UDP-[^14C]Galf and transferase activity (Fig. 4).[17] […] The complete chemical characterisation of the enzymatically synthesised products along with the identity of the galactosyltransferase gene product were previously reported.[17]
Liquid cultures of Mycobacterium smegmatis mc^2155 were grown at 37 °C in Luria Bertoni (LB) broth medium (Difco) supplemented with 0.05% Tween 80, biomass harvested, washed with phosphate buffered saline (PBS) and stored at −20 °C until further use. M. smegmatis cells (10 g wet weight) were washed and re-suspended in 30 ml of buffer A, containing 50 mM MOPS (adjusted to pH 8.0 with KOH), 5 mM β-mercaptoethanol and 10 mM MgCl2 at 4 °C and subjected to probe sonication (Soniprep 150, MSE Sanyo Gallenkamp, Crawley, Sussex, UK; 1 cm probe) for a total time of 10 min in 60 s pulses and 90 s cooling intervals between pulses. The sonicate centrifuged at 27,000g for 60 min at 4 °C. The resulting mycobacterial cell wall pellets were re-suspended in buffer A. Percoll (Pharmacia, Sweden) was added to yield a 60% suspension and centrifuged at 27,000g for 1 h at 4 °C. The upper, particulate diffuse cell wall enzymatically active (P60) band was collected and washed three times with buffer A and re-suspended in buffer A at a final protein concentration of 10 mg/ml. Membrane fractions were obtained by centrifugation of the 27,000g supernatant at 100,000g for 1 h at 4 °C. The supernatant was carefully removed and the membranes gently re-suspended in buffer A at a protein concentration of 20 mg/ml. Protein concentrations were determined using the BCA Protein Assay Reagent kit (Pierce Europe, Oud-Beijerland, Netherlands).
The reaction mixtures were then incubated at 37 °C for 1 h. A CHCl3/CH3OH (1:1, 533 μl) solution was then added to the incubation tubes and the entire contents centrifuged at 18,000g. The supernatant was recovered and dried under a stream of argon and re-suspended in C2H5OH/H2O (1:1, 1 ml) and loaded onto a pre-equilibrated (C2H5OH/H2O [1:1]) 1 ml Whatmann strong anion exchange (SAX) cartridge which was washed with 3 ml of ethanol. The eluate was dried and the resulting products partitioned between the two phases arising from a mixture of n-butanol (3 ml) and H20 (3 ml). The resulting organic phase was recovered following centrifugation at 3,500g and the aqueous phase was again extracted twice with 3 ml of n-butanol saturated water, the pooled extracts were back-washed twice with water saturated with n-butanol (3 ml). The n-butanol–saturated water fraction was dried and re-suspended in 200 μl of n-butanol. The total cpm of radiolabeled material extractable into the n-butanol phase was measured by scintillation counting using 10% of the labelled material and 10 ml of EcoScintA (National Diagnostics, Atlanta). The incorporation of [^14C]Gal was determined by subtracting counts present in control assays (incubation of the reaction components in the absence of the compounds).

E. coli = assay: Antibacterial testing, growth in LB in 96-well plates (OD 595 nm); type: cell-based, Escherichia coli; details: E. coli BL21
Micrococcus luteus = assay: as above; details: read-out: Growth inhibition of M. luteus
Description: (§1) The following procedure was performed using P. putida (ATCC 33015), M. luteus (ATCC 13513), E. coli BL21 and B. subtilis W23. A single colony of the bacterial strain was picked from an LB agar plate and grown in 10 ml of sterile LB medium overnight at 37 °C. 1 ml of this culture was then used to inoculate 50 ml of sterile LB medium at 2%. Hundred microlitres of this 2% culture was pipetted into each well of a 96-well plate. Hundred microlitres of sterile water or sterile aqueous inhibitor solution (200 μg/ml or 1 mg/ml) were then pipetted into each well and the 96-well plates were incubated at 37 °C. Bacterial growth was monitored by measuring the OD at 595 nm at 3, 6 and 24 h.

Pseudomonas putida = assay: as above; details: ATCC 33015
Description: as §1

B. subtilis = assay: as above; details: B. subtilis W23
Description: as §1

Compound	inhibition at 1000 µM (E. coli MurG)	inhibition at 1000 µM [1]	other results
COC(=O)[C@H]1[C@@H](c2ccccc2)N[C@@](C)(C(=O)NCC(=O)NC[C@H]2O[C@@H](n3ccc(=O)[nH]c3=O)[C@H](O)[C@@H]2O)[C@@H]1C(=O)OC (mixture of isomers) [14a]	0%		
COC(=O)[C@H]1[C@@H](c2ccccc2OC)N[C@@](C)(C(=O)NCC(=O)NC[C@H]2O[C@@H](n3ccc(=O)[nH]c3=O)[C@H](O)[C@@H]2O)[C@@H]1C(=O)OC (mixture of isomers) [14b]	32%	0%	pIC50 (E. coli MurG): < 2.30
CCN1C(=O)C2[C@@H](C1=O)[C@@H](C(O)CO)N[C@@]2(C)C(=O)N1CCC[C@H]1C(=O)NC[C@H]1O[C@@H](n2ccc(=O)[nH]c2=O)[C@H](O)[C@@H]1O (mixture of isomers) [20d]	0%	0%	
ramoplanin [reference compound]			Inhibition of MurG (E. coli MurG; 20 μM ramoplanin): > 90%
COC(=O)C1C(c2ccc(OC)c(OC)c2)NC2(C)C(=O)N(CC(=O)NCC3OC(n4ccc(=O)[nH]c4=O)C(O)C3O)C(=O)C12 (centres unmarked) [16d]	26%	0%	pIC50 (E. coli MurG): 2.40
COC(=O)[C@H]1[C@@H](c2ccccc2OC)N[C@@](C)(C(=O)N2CCC[C@H]2C(=O)NC[C@H]2O[C@@H](n3ccc(=O)[nH]c3=O)[C@H](O)[C@@H]2O)[C@H]1C(=O)OC (mixture of isomers) [20b]	0%	0%	
COc1ccccc1[C@H]1N[C@@](C)(COC(=O)CCC(=O)OC[C@H]2O[C@@H](n3ccc(=O)[nH]c3=O)[C@H](O)[C@@H]2O)[C@H]2C(=O)N(c3ccccc3)C(=O)[C@@H]12 (mixture of isomers) [compound 25]	15%	0%	Inhibition of / binding to MurG (in words) (E. coli MurG): weak activity
COC(=O)[C@H]1[C@@H](c2ccccc2OC)N[C@@](C)(C(=O)N2CCC[C@H]2C(=O)NC[C@H]2O[C@@H](n3ccc(=O)[nH]c3=O)[C@H](O)[C@@H]2O)[C@@H]1C(=O)OC (mixture of isomers) [20c]	22%	0%	
COc1ccccc1[C@H]1N[C@@](C)(COC(=O)CC(=O)OC[C@H]2O[C@@H](n3ccc(=O)[nH]c3=O)[C@H](O)[C@@H]2O)[C@H]2C(=O)N(c3ccccc3)C(=O)[C@@H]12 [compound 24]	17%	0%	Inhibition of / binding to MurG (in words) (E. coli MurG): weak activity
C[C@@]1(C(=O)NCC(=O)NC[C@H]2O[C@@H](n3ccc(=O)[nH]c3=O)[C@H](O)[C@@H]2O)N[C@H](C(O)CO)[C@@H]2C(=O)N(c3ccccc3)C(=O)[C@@H]21 (mixture of isomers) [13e]	0%	0%	
COc1ccccc1[C@H]1N[C@@](C)(C(=O)NCC(=O)NC[C@H]2O[C@@H](n3ccc(=O)[nH]c3=O)[C@H](O)[C@@H]2O)[C@H]2C(=O)N(c3ccccc3)C(=O)[C@@H]12 (mixture of isomers) [13b]	85%	0%	Antibacterial activity against E. coli (in words) (E. coli): no effects; inhibition at 100 µg/mL (Micrococcus luteus): 50%; Antibacterial activity against Pseudomonas putida (in words) (Pseudomonas putida): no effects; Antibacterial activity against B. subtilis (in words) (B. subtilis): no effects; pIC50 (E. coli MurG): 3.40
COc1ccccc1[C@@H]1[C@@H]2C(=O)N(c3ccccc3)C(=O)[C@@H]2[C@H](C(=O)N(C)CC(=O)NC[C@H]2O[C@@H](n3ccc(=O)[nH]c3=O)[C@H](O)[C@@H]2O)N1C [compound 19]	31%		Inhibition of / binding to MurG (in words) (E. coli MurG): did bind to MurG
COc1cccc([C@H]2N[C@@](C)(C(=O)NCC(=O)NC[C@H]3O[C@@H](n4ccc(=O)[nH]c4=O)[C@H](O)[C@@H]3O)[C@H]3C(=O)N(c4ccccc4)C(=O)[C@@H]23)c1OC (mixture of isomers) [13c]	0%	0%	
COC(=O)C1C(C(O)CO)NC2(C)C(=O)N(CC(=O)NCC3OC(n4ccc(=O)[nH]c4=O)C(O)C3O)C(=O)C12 (mixture of isomers) [15e]	27%		pIC50 (E. coli MurG): < 2.30
